PubChem BioAssay AID328 (DTP/NCI, 2004)
Inconclusive results and toxic doses are left out.

Tested on: BDF1 mice, P388 leukemia ip, median survival T/C
Experiment: NCI In Vivo Anticancer Drug Screen. Data for tumor model P388 Leukemia (intraperitoneal) in B6D2F1 (BDF1) mice
Conditions: endpoint: median survival time, higher = longer survival
In short: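 Read-out is survival of treated animals expressed relative to the vehicle group, as a T/C ratio.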

[1] = dose: 50.0 mg/kg/injection, schedule: Q01DX009 (ip), vehicle: saline with Tween-80
[2] = dose: 100.0 mg/kg/injection, schedule: Q01DX009 (ip), vehicle: saline with Tween-80
[3] = dose: 400.0 mg/kg/injection, schedule: Q04DX003 (ip), vehicle: saline with Tween-80
[4] = dose: 100.0 mg/kg/injection, schedule: Q01DX009 (ip), vehicle: Klucel (hydroxypropylcellulose) (HPC)
[5] = dose: 100.0 mg/kg/injection, schedule: Q04DX003 (ip), vehicle: Klucel (hydroxypropylcellulose) (HPC)
[6] = dose: 50.0 mg/kg/injection, schedule: Q04DX003 (ip), vehicle: DMSO

## O=CN(c1ccccc1)c1ccccc1
[1]
  T/C: 110 % of control
dose: 100.0 mg/kg/injection, schedule: Q01DX001 (ip), vehicle: other
  T/C: 104 % of control
[2]
  T/C: 95 % of control
dose: 100.0 mg/kg/injection, schedule: Q04DX003 (ip), vehicle: other
  T/C: 91 % of control
dose: 100.0 mg/kg/injection, schedule: Q04DX003 (ip), vehicle: saline
  T/C: 95 % of control
dose: 175.0 mg/kg/injection, schedule: Q04DX003 (ip), vehicle: saline with Tween-80
  T/C: 115 % of control
dose: 200.0 mg/kg/injection, schedule: Q01DX001 (ip), vehicle: other
  T/C: 108 % of control
dose: 200.0 mg/kg/injection, schedule: Q01DX009 (ip), vehicle: saline with Tween-80
  T/C: 100 % of control
dose: 200.0 mg/kg/injection, schedule: Q04DX003 (ip), vehicle: other
  T/C: 116 % of control
dose: 200.0 mg/kg/injection, schedule: Q04DX003 (ip), vehicle: saline
  T/C: 100 % of control
dose: 400.0 mg/kg/injection, schedule: Q01DX001 (ip), vehicle: other
  T/C: 87 % of control
dose: 400.0 mg/kg/injection, schedule: Q01DX009 (ip), vehicle: saline with Tween-80
  T/C: 105 % of control
[3]
  T/C: 150 % of control
dose: 400.0 mg/kg/injection, schedule: Q04DX003 (ip), vehicle: saline
  T/C: 86 % of control

## CCOC(CNC(=O)OCc1ccccc1)OCC
[4]
  T/C: 105 % of control
dose: 200.0 mg/kg/injection, schedule: Q01DX009 (ip), vehicle: Klucel (hydroxypropylcellulose) (HPC)
  T/C: 100 % of control
dose: 400.0 mg/kg/injection, schedule: Q01DX009 (ip), vehicle: Klucel (hydroxypropylcellulose) (HPC)
  T/C: 105 % of control

## NNC(=O)[C@H]1CC[C@H]1C(=O)NN
dose: 25.0 mg/kg/injection, schedule: Q01DX009 (ip), vehicle: saline
  T/C: 95 % of control
dose: 50.0 mg/kg/injection, schedule: Q01DX009 (ip), vehicle: saline
  T/C: 109 % of control

## CC(=O)O[C@H]1C(=O)[C@@]2(C)[C@H]([C@H](OC(=O)c3ccccc3)[C@]3(O)C[C@H](OC(=O)[C@H](O)[C@@H](NC(=O)c4ccccc4)c4ccccc4)C(C)=C1C3(C)C)[C@]1(OC(C)=O)CO[C@@H]1C[C@@H]2O
dose: 5.0 mg/kg/injection, schedule: Q01DX010 (ip), vehicle: steriod suspending solution
  T/C: 186 % of control
dose: 10.0 mg/kg/injection, schedule: Q01DX010 (ip), vehicle: steriod suspending solution
  T/C: 172 % of control
dose: 12.5 mg/kg/injection, schedule: Q04DX003 (iv), vehicle: Klucel (hydroxypropylcellulose) (HPC)
  T/C: 100 % of control
dose: 20.0 mg/kg/injection, schedule: Q01DX010 (ip), vehicle: steriod suspending solution
  T/C: 190 % of control
dose: 21.6 mg/kg/injection, schedule: Q04DX003 (ip), vehicle: Klucel (hydroxypropylcellulose) (HPC)
  T/C: 171 % of control
dose: 25.0 mg/kg/injection, schedule: Q01DX010 (ip), vehicle: steriod suspending solution
  T/C: 113 % of control
dose: 25.0 mg/kg/injection, schedule: Q04DX003 (ip), vehicle: Klucel (hydroxypropylcellulose) (HPC)
  T/C: 162 % of control
dose: 25.0 mg/kg/injection, schedule: Q04DX003 (iv), vehicle: Klucel (hydroxypropylcellulose) (HPC)
  T/C: 98 % of control
dose: 25.9 mg/kg/injection, schedule: Q04DX003 (ip), vehicle: Klucel (hydroxypropylcellulose) (HPC)
  T/C: 179 % of control
dose: 43.2 mg/kg/injection, schedule: Q04DX003 (ip), vehicle: Klucel (hydroxypropylcellulose) (HPC)
  T/C: 170 % of control
dose: 50.0 mg/kg/injection, schedule: Q04DX003 (ip), vehicle: Klucel (hydroxypropylcellulose) (HPC)
  T/C: 165 % of control
dose: 50.0 mg/kg/injection, schedule: Q04DX003 (iv), vehicle: Klucel (hydroxypropylcellulose) (HPC)
  T/C: 103 % of control
dose: 60.0 mg/kg/injection, schedule: Q04DX003 (ip), vehicle: Klucel (hydroxypropylcellulose) (HPC)
  T/C: 102 % of control
dose: 72.0 mg/kg/injection, schedule: Q04DX003 (ip), vehicle: Klucel (hydroxypropylcellulose) (HPC)
  T/C: 166 % of control
[5]
  T/C: 173 % of control
dose: 120.0 mg/kg/injection, schedule: Q04DX003 (ip), vehicle: Klucel (hydroxypropylcellulose) (HPC)
  T/C: 100 % of control

## COc1ccc(/C(C)=C\C(=O)O)cc1
dose: 100.0 mg/kg/injection, schedule: Q04DX003 (ip), vehicle: saline with Tween-80
  T/C: 100 % of control
dose: 200.0 mg/kg/injection, schedule: Q04DX003 (ip), vehicle: saline with Tween-80
  T/C: 100 % of control
[3]
  T/C: 95 % of control

## COc1ccc(C(=O)/C=N/O)cc1
dose: 25.0 mg/kg/injection, schedule: Q01DX009 (ip), vehicle: saline with Tween-80
  T/C: 86 % of control
[1]
  T/C: 100 % of control
[2]
  T/C: 90 % of control

## CC1CC(C)(O)C2C3(C)CCCC2(COC3=O)C12CCC1(CCOC1=O)O2 (configuration not stated)
dose: 2.5 mg/kg/injection, schedule: Q01DX009 (ip), vehicle: Klucel (hydroxypropylcellulose) (HPC)
  T/C: 88 % of control
dose: 5.0 mg/kg/injection, schedule: Q01DX009 (ip), vehicle: Klucel (hydroxypropylcellulose) (HPC)
  T/C: 106 % of control
dose: 10.0 mg/kg/injection, schedule: Q01DX009 (ip), vehicle: Klucel (hydroxypropylcellulose) (HPC)
  T/C: 95 % of control

## Nc1nc2nc(N=Nc3ccc(Br)cc3)[nH]c2c(=O)[nH]1
dose: 50.0 mg/kg/injection, schedule: Q01DX005 (ip), vehicle: saline with Tween-80
  T/C: 98 % of control
dose: 100.0 mg/kg/injection, schedule: Q01DX005 (ip), vehicle: saline with Tween-80
  T/C: 97 % of control
dose: 200.0 mg/kg/injection, schedule: Q01DX005 (ip), vehicle: saline with Tween-80
  T/C: 100 % of control

## O=[N+]([O-])c1ccccc1N=P(c1ccccc1)(c1ccccc1)c1ccccc1
dose: 50.0 mg/kg/injection, schedule: Q01DX009 (ip), vehicle: DMSO
  T/C: 109 % of control
[6]
  T/C: 100 % of control
dose: 100.0 mg/kg/injection, schedule: Q01DX009 (ip), vehicle: DMSO
  T/C: 104 % of control
dose: 100.0 mg/kg/injection, schedule: Q04DX003 (ip), vehicle: DMSO
  T/C: 104 % of control
dose: 200.0 mg/kg/injection, schedule: Q04DX003 (ip), vehicle: DMSO
  T/C: 90 % of control

## Nc1nccc(NC(c2ccccc2)c2ccccc2)c1N
dose: 3.0 mg/kg/injection, schedule: Q01DX009 (ip), vehicle: DMSO
  T/C: 95 % of control
dose: 6.0 mg/kg/injection, schedule: Q01DX009 (ip), vehicle: DMSO
  T/C: 100 % of control
dose: 12.0 mg/kg/injection, schedule: Q01DX009 (ip), vehicle: DMSO
  T/C: 95 % of control
dose: 12.5 mg/kg/injection, schedule: Q01DX009 (ip), vehicle: DMSO
  T/C: 103 % of control
dose: 12.5 mg/kg/injection, schedule: Q04DX003 (ip), vehicle: DMSO
  T/C: 95 % of control
dose: 25.0 mg/kg/injection, schedule: Q04DX003 (ip), vehicle: DMSO
  T/C: 100 % of control
[6]
  T/C: 100 % of control

## C(=C\c1cccnc1)/c1ccncc1
dose: 66.0 mg/kg/injection, schedule: Q01DX009 (ip), vehicle: Klucel (hydroxypropylcellulose) (HPC)
  T/C: 158 % of control
dose: 66.0 mg/kg/injection, schedule: Q01DX009 (ip), vehicle: saline with Tween-80
  T/C: 108 % of control
[4]
  T/C: 178 % of control
[2]
  T/C: 94 % of control
[5]
  T/C: 100 % of control
dose: 150.0 mg/kg/injection, schedule: Q01DX009 (ip), vehicle: Klucel (hydroxypropylcellulose) (HPC)
  T/C: 158 % of control
dose: 150.0 mg/kg/injection, schedule: Q01DX009 (ip), vehicle: saline with Tween-80
  T/C: 108 % of control
dose: 200.0 mg/kg/injection, schedule: Q04DX003 (ip), vehicle: Klucel (hydroxypropylcellulose) (HPC)
  T/C: 86 % of control
